Results: patent publication US10828337B2, “Materials and methods for controlling vasculogenesis from endothelial colony forming cells” (Indiana University Research and Technology Corporation, priority 2011, dated 2020)

Tested on: ECFC vacuole formation
Assay: Perturbation of ECFC vacuole formation by inhibitors
Type: cell-based, Human
Conditions: for way in which total vacuole area was decreased: Casin 2.5 μM (Cdc42), NSC23766 25 μM (Rac1), 3.0 mg/ml oligomer rich matrices (FIGS. 11 G, H); for effect on ECFC vacuole formation: MAB17781 1 μg/ml, Casin 2.5 μM, NSC23766 25 μM, TIMP-3 5 μg/ml
Protocol: For analysis of in vitro vacuole formation, cultures were fixed with 4% paraformaldehyde for 20 minutes at 48 hours. Scaffolds were stained with 0.1% toluidine blue 0 in 30% methanol for 20 minutes and then washed with PBS.
A Leica DM IRE2 microscope (Leica Microsystems, Bannockburn, Ill.) with attached Retiga 4000R digital camera (QImaging, Surrey, BC, Canada) was used to image the entire area of each matrix using a 10× objective and the middle 9 fields of view were used for analysis. Lumens were quantified using a standard image analysis system Metamorph (Molecular Devices, Sunnyvale, Calif.). […] Lumens were defined as areas completely surround by a toluidine blue labeled endothelial cell membrane.
Chemical inhibitors TIMP-3 (5 μg/ml, R&D Systems, Minneapolis, Minn.), Casin (2.5 μM), NSC23766 (25 μM), or MAB17781 (1 μg/ml, R&D Systems, Minneapolis, Minn.) were added into the media during ECFC culture in 3.0 mg/ml matrices polymerized with the oligomer rich fraction. Treatments were conducted in duplicate and at least three independent experiments were conducted.
To first determine if this signaling axis was involved in ECFC vacuole formation chemical inhibitors to β1 integrin, Cdc42, Rac1, and MT1-MMP were added to cultures to test if they would alter cell behavior.

[1] = 3.0 mg/ml oligomer rich matrices

Row | Molecule | way in which total vacuole area was decreased | effect on ECFC vacuole formation [1] | vacuole density (inhibitor in media (MAB17781 1 μg/ml, TIMP-3 5 μg/ml), 3.0 mg/ml oligomer rich matrices, control 11.24±0.65) [vacuoles/mm^2] | vacuole area (inhibitor in media (MAB17781 1 μg/ml, TIMP-3 5 μg/ml), 3.0 mg/ml oligomer rich matrices, control 536.09±138.24) [μm^2] | total vacuole area (inhibitor in media (MAB17781 1 μg/ml, TIMP-3 5 μg/ml), 3.0 mg/ml oligomer rich matrices, control 19103.60±5447.67) [μm^2]
1 | OCCNC1CCCc2c1[nH]c1ccc(-c3ccccc3)cc21 (centres unmarked) [Casin] | decreased total vacuole area by decreasing vacuole density | inhibited ECFC vacuole formation |  |  | 
2 | CCN(CC)CCCC(C)Nc1nc(C)cc(Nc2ccc3nc(C)cc(N)c3c2)n1 (centres unmarked) [NSC23766] | decreased total vacuole area by decreasing average vacuole area | inhibited ECFC vacuole formation |  |  | 
3 | TIMP-3: inhibitor (R&D Systems) added to the cultures to inhibit MT1-MMP activity (protein, UniProt P35625 24-211, looked up) Metalloproteinase inhibitor 3: CTCSPSHPQDAFCNSDIVIRAKVVGKKLVKEGPFGTLVYTIKQMKMYRGFTKMPHVQYIHTEASESLCGLKLEVNKYQYLLTGRVYDGKMYTGLCNFVERWDQLTLSQRKGLNYRYHLGCNCKIKSCYYLPCFVTSKNECLWTDMLSNFGYPGYQSKHYACIRQKGGYCSWYRGWAPPDKSIINATDP |  | inhibited ECFC vacuole formation | 3.31±1.38 | 146.04±45.86 | 2288.76±1685.92
